# Measurements from patent US7589122B2, “Method for soybean aphid population suppression and monitoring using aphid- and host-plant-associated semiochemical compositions” (MSTRS Technologies, Inc., priority 2004, dated 2009).
# Legend:
# [1] = test system: antennae of winged soybean aphids, Aphis glycines; test: EAG responses of winged soybean aphids to soybean associated volatile compounds; settings: relative to the control (FIG. 3)
# Description: FIG. 3 is a graph of EAG responses of winged soybean aphids, Aphis glycines, to some soybean associated volatile compounds.
# EAG responses of soybean aphids to soybean plant volatiles and their attractiveness in the field. […] All other compounds elicited EAG responses seemed not to be attractive to winged aphids relative to the control.
# [2] = test system: syrphids; test: Field trapping of predatory insects with attractant compounds: syrphids; format: in vivo, Syrphidae (syrphids); settings: 100 mg bait, Iowa soybean field 2003 (FIG. 7)
# Procedure: (§1) FIG. 7 is a graph of the mean number of predatory insects caught in traps baited with 100 mg of methyl salicylate and 2-phenylethanol, and the control from an Iowa soybean field in 2003.
# (§2) Field Test. Field trapping tests were conducted in soybean field from 2002 to 2003 (Ames, Iowa). Synthetic compounds at a dose of 100 mg (for plant volatiles) and 10 mg for soybean aphid pheromones were prepared in either hexane or methylene chloride or ether. Medical peerless cotton rolls (5 cm long, 100% cotton) were used as dispensers for loading plant volatiles, and borosilicate glass vials (Chromal) were housed for pheromones. Two trap designs were used, and the first type is similar to that described in Zhu et al., (1999), and the second one is the most common trap used for aphid trapping, the water trap. The trap was hung from bamboo stakes, 1.2 m above the ground. Within a replicate (N=5-6), traps were set at least 10 m apart. The traps were checked daily, and trap position within a series was randomized to minimize the effects of habitat heterogeneity.
# [3] = test system: male and gynoparous female soybean aphids; test: Field trapping of male and gynoparous soybean aphids with synthetic sex pheromone lures; format: in vivo, Aphis glycines; settings: synthetic pheromone lures 10 mg, soybean fields (FIG. 12)
# Procedure: FIG. 16 is a graph of mean number of winged soybean aphids caught in water traps baited with different combinations of catnip oil and the two pheromone compounds (n=5, columns with no letters in common are significant different, ANOVA followed by FPLSD test, P<0.05)
# as §2
# [4] = test system: gynoparous female antennae of soybean aphids; test: EAG dose-response of gynoparous female soybean aphid antennae to synthetic pheromone compounds; parameters: species or system Aphis glycines; settings: when pheromone exceeded a 1 mg dosage (FIG. 11 lower)
# Description: FIG. 11 is two graphs of EAG dose-response curves from male (upper part) and gynoparous female antennae (lower part) of soybean aphids to synthetic pheromone candidate compounds (n=4; different letters within a series indicate significant differences, ANOVA followed by FPLSD test, P<0.05)
# EAG dose-responses of male and gynoparous soybean aphids to the identified sex pheromone compounds.
# [5] = test system: Coccinella septempunctata; test: Field trapping of predatory insects with attractant compounds: Coccinella septempunctata; format: in vivo; settings: 100 mg bait, Iowa soybean field 2003 (FIG. 7)
# Procedure: as §1
# FIG. 8 is a graph of the mean number of Coccinella septempunctata caught in traps baited with different doses of methyl salicylate from an Iowa soybean field in 2004.
# as §2
# [6] = test system: Harmonia axyridis; test: Field trapping of predatory insects with attractant compounds: Harmonia axyridis; format: in vivo; settings: 100 mg bait, vs control (FIG. 7)
# Procedure: as §1, §2
# [7] = test system: soybean aphids on soybean plants; test: Caged greenhouse experiment: effect of methyl salicylate on soybean aphid colonizing and growth; format: in vivo, Aphis glycines
# Procedure: The effect of Methyl salicylate on soybean aphid growth. This experiment was conducted in the green house, where cages of soybean plants treated with dispensers loaded 4 g of synthetic methyl salicylate. Newly emerged winged soybean aphids on one cut-soybean leaf (dried) were placed in the middle of the cage, which is 30 cm away from the potted soybean plants (V2 stage) with or without treatment of methyl salicylate. For plants treated with methyl salicylate, the cotton roll was placed in the center of the plant, and was replaced with a newly loaded one after one week. The number of winged aphids on each plant were counted 2 hours after introducing the winged aphids, and continued for a week. The number of wingless soybean aphids produced from those landed winged aphids was also counted everyday for about two weeks.
# [8] = test system: winged soybean aphids; test: Field trapping of winged soybean aphids with selected soybean volatile compounds; format: in vivo, Aphis glycines; settings: traps baited with synthetic soybean volatile, 100 mg, soybean field (FIG. 4)
# Procedure: FIG. 4 is a graph of the number of winged soybean aphids caught per trap baited with some selected soybean volatile compounds (synthetic) in the soybean field.
# as §2
structure (smiles),measurement,setting,value
OCCc1ccccc1 [2-phenylethanol],EAG responses of winged soybean aphids,[1],significantly stronger than the control
same,attraction of syrphids to baited traps,[2],strongest attraction
"CC1=CO[C@@H](O)[C@H]2[C@@H]1CC[C@@H]2C [nepetalactol, (1R,4aS,7S,7aR)-nepetalactol]",number of male and gynoparous soybean aphids caught in traps,[3],Significantly lower catches
CC/C=C\CCOC(C)=O [(Z)-3 hexenyl acetate],EAG responses of winged soybean aphids,[1],significantly stronger than the control
CCC/C=C/C=O [(E)-2 hexenal],EAG responses of winged soybean aphids,[1],highest response
"CC1=COC(=O)[C@H]2[C@@H]1CC[C@@H]2C [nepetalactone, (4aS,7S,7aR)-nepetalactone]",EAG response of gynoparous female antennae,[4],higher EAG response
same,number of male and gynoparous soybean aphids caught in traps,[3],Significantly lower catches
C=CC(C)=CCC=C(C)C [ocimene],EAG responses of winged soybean aphids,[1],significantly stronger than the control
COC(=O)c1ccccc1O [methyl salicylate],EAG responses of winged soybean aphids,[1],significantly stronger than the control
same,attraction of adults of Coccinella septempunctata to baited traps,[5],significantly attractive
same,attraction of syrphids to baited traps,[2],attracted to some syrphids
same,number of Harmonia axyridis caught in baited traps,[6],not significantly differed from the control
same,growth of wingless soybean aphids on soybean leaves,[7]; caged potted soybean plants treated vs untreated (FIG. 17 lower),suppress the growth
same,soybean aphid colonizing on soybean plants (winged aphids found on potted plants),[7]; caged potted soybean plants treated vs untreated (FIG. 17 upper),significantly reducing
CC(=O)CCC=C(C)C [6-methyl-5-hepten-2-one],EAG responses of winged soybean aphids,[1],significantly stronger than the control
CC/C=C\CCO [(Z)-3 Hexenol],EAG responses of winged soybean aphids,[1],significantly stronger than the control
C=CC(C)(O)CCC=C(C)C (stereo not shown) [linalool],EAG responses of winged soybean aphids,[1],significantly stronger than the control
O=Cc1ccccc1 [benzaldehyde],EAG responses of winged soybean aphids,[1],significantly stronger than the control
same,number of winged soybean aphids caught per trap,[8],caught the most
